Experimental data as given in the supplement of paper PMC11451515.

Key:
Conditions in all cases: 48 h
SEM cells [1] = assay: AUC of viability dose-response curve (% viability x log10 dose units); higher = less sensitive
Summary of the method: (§1)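 Leukemia cells adapted to each medium were seeded in 1536-well plates (500 or 1000 cells/well). They were dosed with library compounds in DMSO at 11 threefold doses, 47 μM to 0.79 nM, for 48 h at 37°C. CellTiter-Glo One luminescence was normalised per plate to DMSO and cell-free wells. Area under the curve was integrated by trapezoidal rule over log10 doses on a four-parameter log-logistic fit; curves exceeding full viability were scaled and curves failing quality control removed.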

P12-Ichikawa [2] = assay: as above
Summary of the method: as §1

NOMO1 [3] = assay: as above
Summary of the method: as §1

SEM cells [4] = assay: cell viability relative to DMSO control; higher = less cytotoxic
Summary of the method: (§2)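 Viability is expressed as a percentage of DMSO wells within each plate, and cell-free wells serve as background. Seeding densities in the 1536-well plates (5 μl) were 500 cells/well for NOMO1 or SEM leukemia cells and 1000 cells/well for P12-Ichikawa. Each line was adapted for at least four passages in each medium. Library compounds in DMSO were pin-dosed at 47 μM to 0.79 nM (11 points, threefold), and CellTiter-Glo One luminescence was read after 48 h at 37°C.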

P12-Ichikawa [5] = assay: as above
Summary of the method: as §2

NOMO1 [6] = assay: as above
Summary of the method: as §2

Nc1nc(N)c2nc(-c3cccc(O)c3)c(-c3cccc(O)c3)nc2n1
AUC of viability dose-response curve
Conditions	NOMO1 [3]	P12-Ichikawa [2]	SEM cells [1]
HPLM + 10% dialyzed FBS	402	409	409
RPMI 5 mM glucose + 10% FBS	443	445	430
RPMI 5 mM glucose + 10% dialyzed FBS	440	454	420

cell viability [%]
Conditions	NOMO1 [6]	P12-Ichikawa [5]	SEM cells [4]
HPLM + 10% dialyzed FBS, 0.000781 µM	124	117	110
HPLM + 10% dialyzed FBS, 0.00234 µM	135	113	120
HPLM + 10% dialyzed FBS, 0.00702 µM	110	113	120
HPLM + 10% dialyzed FBS, 0.0211 µM	128	110	135
HPLM + 10% dialyzed FBS, 0.0632 µM	116	120	111
HPLM + 10% dialyzed FBS, 0.19 µM	126	117	125
HPLM + 10% dialyzed FBS, 0.569 µM	123	94.6	104
HPLM + 10% dialyzed FBS, 1.71 µM	108	89.9	106
HPLM + 10% dialyzed FBS, 5.12 µM	79.6	81.2	94.5
HPLM + 10% dialyzed FBS, 15.4 µM	47.8	72.2	35
HPLM + 10% dialyzed FBS, 46.1 µM	17	55.2	8.06
RPMI 5 mM glucose + 10% FBS, 0.000781 µM	106	108	124
RPMI 5 mM glucose + 10% FBS, 0.00234 µM	115	117	125
RPMI 5 mM glucose + 10% FBS, 0.00702 µM	102	113	125
RPMI 5 mM glucose + 10% FBS, 0.0211 µM	116	109	129
RPMI 5 mM glucose + 10% FBS, 0.0632 µM	112	122	103
RPMI 5 mM glucose + 10% FBS, 0.19 µM	117	112	118
RPMI 5 mM glucose + 10% FBS, 0.569 µM	105	118	120
RPMI 5 mM glucose + 10% FBS, 1.71 µM	111	118	110
RPMI 5 mM glucose + 10% FBS, 5.12 µM	91.6	101	108
RPMI 5 mM glucose + 10% FBS, 15.4 µM	90.6	89	73.8
RPMI 5 mM glucose + 10% FBS, 46.1 µM	4.68	28.1	13.8
RPMI 5 mM glucose + 10% dialyzed FBS, 0.000781 µM	119	111	119
RPMI 5 mM glucose + 10% dialyzed FBS, 0.00234 µM	106	116	99.4
RPMI 5 mM glucose + 10% dialyzed FBS, 0.00702 µM	107	113	129
RPMI 5 mM glucose + 10% dialyzed FBS, 0.0211 µM	112	123	106
RPMI 5 mM glucose + 10% dialyzed FBS, 0.0632 µM	114	120	105
RPMI 5 mM glucose + 10% dialyzed FBS, 0.19 µM	110	114	114
RPMI 5 mM glucose + 10% dialyzed FBS, 0.569 µM	105	107	98.8
RPMI 5 mM glucose + 10% dialyzed FBS, 1.71 µM	108	116	96.5
RPMI 5 mM glucose + 10% dialyzed FBS, 5.12 µM	96.7	108	97.2
RPMI 5 mM glucose + 10% dialyzed FBS, 15.4 µM	78.5	95.5	61
RPMI 5 mM glucose + 10% dialyzed FBS, 46.1 µM	42.2	52.1	18.2
